{"source": "patent US20140161769A1", "about": "“METHODS FOR TREATING INFLAMMATORY AUTOIMMUNE DISORDERS” (Beth Israel Deaconess Medical Center, Inc., priority 2010, published 2014)", "key": {"MRL/lpr mice": {"test_system": "MRL/lpr mice", "assay": "Treatment of MRL/lpr mice with KN-93 (lupus nephritis; urine and kidney histopathology)", "assay_type": "in vivo, mouse", "experimental": "FIG. 7A is a graph showing the weekly quantification of urinary protein and leukocytes of pre-disease 8-week-old MRL/lpr mice treated with either KN-93 (40 mg/kg) or PBS. The agent was administered by intraperitoneal injections three times a week, every other week, during an 8-week time period. The arrows indicate the administration of the treatment. FIG. 7B is a graph showing the weekly quantification of urinary protein and leukocytes of diseased 12-week-old MRL/lpr mice (n≧5 mice per group) treated with KN-93 or PBS. Treatment was administered three times a week during a 5-week time period. FIG. 7C is a series of representative images of glomerular, tubule-interstitial, and perivascular areas from 16-week-old MRL/lpr mice treated with PBS (upper panels) and KN-93 (stained with Periodic Acid Schiff). The photographs from the middle panels correspond to mice treated before the onset of proteinuria (8 week-old). The lower panels correspond to mice treated after the disease had been established. The magnification is ×40 (glomerular), ×10 (tubular), and ×20 (perivascular).\nWe recorded proteinuria and pyuria in CaMKIV-deficient and sufficient MRL/lpr mice from the 6th to the 24th week of age. The mice in each group were placed overnight in a Nalgene metabolic cage to collect urine. Urine was measured with Multistix 10SG reagent strips and analyzed by a Clinitek Status analyzer (Bayer Healthcare). Proteinuria increased to 3 g/L in MRL/lpr mice at the age of 14 weeks and remained at the same level thereafter. However, in MRL/lprCaMKIV−/− mice, proteinuria remained at 1 g/L throughout the observation period. The number of leukocytes in the urine increased to 500 μl at week 14 in MRL/lpr mice, whereas it remained less than 15 μl in MRL/lprCaMKIV−/− mice (FIG. 4A).\nTo rule out such possibility, we used KN-93, a well-known CaMKIV inhibitor (Tsung et al., J Exp Med. 204: 2913-2923, 2007; Sato et al., Nat Med. 12: 1410-1416, 2006; and Ilario et al., Blood 111: 723-731, 2008), to treat MRL/lpr mice and determine its effect on the expression of lupus nephritis. The agent was administered by intraperitoneal injections at a dose of 0.08 mg/mouse, three times a week. We treated MRL/lpr mice with PBS (control) or KN-93 either every other week from week 8 to week 16 (disease prevention) (FIG. 7A) or weekly from week 12 to week 16 (disease treatment) (FIG. 7B).\nIn the disease prevention experiment, KN-93 administration was started either before the onset of proteinuria, when the mice were 8 weeks old. These mice received the agent every other week. In the disease treatment experiment, the effectiveness of KN-93 in established disease was evaluated. KN-93 administration was started when mice were 12 weeks old and continued three times a week during 5 weeks. Mice of both experiments were sacrificed at the end of their 16th week of age."}, "[1]": {"test_system": "Splenocytes isolated from MRL/lpr mice", "assay": "CD86 expression on CD19 positive B cells of MRL/lpr splenocytes (flow cytometry)", "assay_type": "cell-based, mouse", "conditions": "KN-93 (10 μM)", "experimental": "Splenocytes were isolated from MRL/lpr mice and stimulated with LPS (1 μg/ml) or PBS for 24 hours. FIGS. 10A and 10C are bar graphs showing the expression of CD86 in LPS-stimulated cells (FIG. 10A) and unstimulated cells (FIG. 10C). A Kruskal-Wallis test was used for statistical analyses. Results are expressed as mean+SD CP=0.01; n=three 24-week-old mice per group). FIGS. 10B and 10D are representative histograms comparing CD86 expression on LPS-stimulated (FIG. 10B) and unstimulated splenocytes (FIG. 10D). Splenocytes were treated with KN-93 (10 μM) (right panel) or PBS (left panel) for 24 hours. Shaded areas represent isotype control staining.\nWe wished to determine whether CaMKIV deficiency suppresses CD86 expression in all types of antigen presenting cells (APC). Splenocytes were isolated from MRL/lpr and MRL/lprCaMKIV−/− mice and stimulated with LPS (1 μg/ml) or PBS for 24 hours. We stained cells with fluorochrome-conjugated antibodies against the major histocompatibility complex (MHC) class II (eBioscience) (all APCs), CD19 (B cells), CD11c (dendritic cells), and F4/80 (macrophages) (BioLegend). […]\nSplenocytes isolated from MRL/lpr mice were stimulated with LPS (1 μg/ml) or PBS for 24 hours in the presence or absence of KN-93. CD19 positive B cells were analyzed for the expression of CD86. […]"}, "Normal human T cells": {"test_system": "Normal human T cells", "assay": "IFN-γ production and CD69 expression in normal human T cells", "assay_type": "cell-based", "experimental": "(§1) FIG. 15A is a bar graph showing IFN-γ levels in supernatants from human T cells incubated with PBS or CD3/28 and treated with either PBS (white bars) or with KN-93 (black bars). FIG. 15B are histograms comparing CD69 expression in human T cells incubated with PBS (left) or with CD3/28 (right). Data are shown for control (gray), treatment with PBS (dotted line), and treatment with KN-93 (solid line). FIG. 15C is a series of bar graphs showing […] (left), IL-6 (middle), and TNF-α(right) levels in supernatants from macrophages incubated with PBS or LPS and treated with either PBS (white bars) or with KN-93 (black bars). Normal human T cells and macrophages were treated with PBS (control) or KN-93. […] Furthermore, the activity of IL-6 in murine mesangial cells decreases in the absence of CaMKIV. Taken together, inhibition of CaMKIV by KN-93 or absence of CaMKIV (e.g., by genetic deficiency) decreases the expression of various pro-inflammatory cytokines, and inhibitors of CaMKIV could be used to treat disorders associated with one or more of such cytokines (e.g., autoimmune disorders)."}, "macrophages": {"test_system": "macrophages", "assay": "Cytokine production in normal human macrophages", "assay_type": "cell-based", "conditions": "supernatants from macrophages incubated with PBS or LPS, KN-93 vs PBS", "experimental": "as §1"}, "primary mesangial cells [2]": {"test_system": "primary mesangial cells", "assay": "Mesangial cell proliferation (cell cycle analysis, flow cytometry)", "assay_type": "cell-based, mouse", "experimental": "FIG. 16A is a series of histograms in unstimulated cells (left) and cells stimulated with PDGF (right). FIG. 16B is a series of immunoblots of protein extracts obtained from murine mesangial cells and immunoblotted with anti-CDK2 or anti-cyclin D1 antibodies. After isolation from MRL/MPJ or MRL/lpr mice, these cells were untreated, treated with KN-93, treated with PDGF, or treated with both KN-93 and PDGF. Briefly, four hundred thousand primary mesangial cells were incubated in 2 mL of RPMI 1640 with 10% FBS. Cells were plated in 6-well plates and made quiescent by serum starvation for 24 hours. Then, cells were treated with 20 ng/ml of PDGF-BB (PeproTech, Inc. Rocky Hill, N.J.) for 24 hours. In some experiments, cells were pretreated with KN-93 (20 μM) for 48 hours before the addition of PDGF-BB. For cell cycle analysis, mesangial cells were harvested with trypsin, washed twice with PBS, fixed in cold 95% ethanol, and stored at 4° C. until use. Before flow cytometric analysis, cells were washed with PBS and centrifuged, and the cell pellets were resuspended in a solution of RNAse (0.5 mg/ml) in PBS and incubate at 37° C. for 20 minutes. Then, propidium iodide (PI) (40 μg/ml) was added in PBS for 30 minutes. Stained cells were analyzed with a flow cytometer (model FACS Scan; BD Bioscience, Franklin Lakes, N.J.). […]"}, "primary mesangial cells [3]": {"test_system": "primary mesangial cells", "assay": "Western blot of CDK2 and cyclin D1 in mesangial cells", "assay_type": "cell-based, mouse", "conditions": "mesangial cells from MRL/MPJ or MRL/lpr mice, immunoblot", "experimental": "FIG. 16A is a series of histograms in unstimulated cells (left) and cells stimulated with PDGF (right). FIG. 16B is a series of immunoblots of protein extracts obtained from murine mesangial cells and immunoblotted with anti-CDK2 or anti-cyclin D1 antibodies. After isolation from MRL/MPJ or MRL/lpr mice, these cells were untreated, treated with KN-93, treated with PDGF, or treated with both KN-93 and PDGF. Briefly, four hundred thousand primary mesangial cells were incubated in 2 mL of RPMI 1640 with 10% FBS. Cells were plated in 6-well plates and made quiescent by serum starvation for 24 hours. Then, cells were treated with 20 ng/ml of PDGF-BB (PeproTech, Inc. Rocky Hill, N.J.) for 24 hours. In some experiments, cells were pretreated with KN-93 (20 μM) for 48 hours before the addition of PDGF-BB. For Western blot analysis, mesangial cells were homogenized in radioimmunoprecipitation assay (RIPA) buffer at 4° C. After centrifugation at 14,000 rpm for 30 min at 4° C., supernatant was collected and stored at −80° C. until use. The following antibodies were used for immunoblot assay: rabbit anti-CDK2, rabbit anti-cyclin D1 (Cell signaling) and rabbit anti-actin (Sigma)."}, "[4]": {"conditions": "kidneys of KN-93 treated MRL/lpr mice"}}}
{"compound": "COc1ccc(S(=O)(=O)N(CCO)c2ccccc2CN(C)CC=Cc2ccc(Cl)cc2)cc1", "note": "[KN-93, N-[2-[[[3-(4-chlorophenyl)-2-propenyl]methylamino]methyl]phenyl]-N-(2-hydroxyethyl)-4-methoxybenzenesulphonamide]", "values": [{"measurement": "kidney pathology, determined histopathologically", "setting": "MRL/lpr mice; 16-week-old MRL/lpr mice, KN-93 vs PBS", "result": "less kidney pathology"}, {"measurement": "protein in the urine (proteinuria)", "setting": "MRL/lpr mice; MRL/lpr mice, KN-93 i.p. 0.08 mg/mouse three times a week, both schemes (every other week, weeks 8-16; weekly, weeks 12-16), PBS-treated mice 3 g/L", "result": "less than 1 g/L"}, {"measurement": "leukocytes in the urine (pyuria)", "setting": "MRL/lpr mice; MRL/lpr mice, KN-93 i.p. 0.08 mg/mouse three times a week, both schemes, PBS-treated mice 500 leukocytes/μl", "result": "< 125", "unit": "leukocytes/μl"}, {"measurement": "glomerular crescents", "setting": "MRL/lpr mice; [4]", "result": "did not have any glomerular crescents"}, {"measurement": "glomerular damage, interstitial, and perivascular inflammatory cell infiltration", "setting": "MRL/lpr mice; [4]", "result": "limited"}, {"measurement": "expression of CD86 on stimulated cells", "setting": "[1]; LPS (1 μg/ml) 24 hours", "result": "suppressed"}, {"measurement": "expression of CD86 in non-LPS stimulated cells", "setting": "[1]; PBS 24 hours", "result": "trend towards lower expression"}, {"measurement": "expression of CD69 on T cells", "setting": "Normal human T cells; normal human T cells, KN-93 vs PBS", "result": "decreased expression"}, {"measurement": "production of IFN-γ", "setting": "Normal human T cells; supernatants from human T cells incubated with PBS or CD3/28, KN-93 vs PBS", "result": "decreased production"}, {"measurement": "production of IL-1β", "setting": "macrophages", "result": "decreased production"}, {"measurement": "production of IL-6", "setting": "macrophages", "result": "decreased production"}, {"measurement": "production of TNF-α", "setting": "macrophages", "result": "decreased production"}, {"measurement": "mesangial cell proliferation", "setting": "primary mesangial cells [2]; with PDGF stimulation (20 ng/ml PDGF-BB 24 hours), pretreated with KN-93 (20 μM) 48 hours", "result": "suppressed"}, {"measurement": "mesangial cell proliferation", "setting": "primary mesangial cells [2]; without PDGF stimulation, KN-93 (20 μM) 48 hours", "result": "suppressed"}, {"measurement": "presence of CD-K2", "setting": "primary mesangial cells [3]", "result": "decreased"}, {"measurement": "presence of cyclin D1", "setting": "primary mesangial cells [3]", "result": "decreased"}]}
